Data: publication PMC9101684, “Hempseed (Cannabis sativa) Peptide H3 ([sequence]) Exerts Cholesterol-Lowering Effects in Human Hepatic Cell Line” (Nutrients, 2022)
pIC50: −log10 of the molar value. Where no end group is shown, it is not given here.

Assays:
[1] = biological target: T1, HMGCoAR (catalytic domain) (Homo sapiens, UniProt P04035); experiment: HMGCoAR activity assay (NADPH oxidation, absorbance 340 nm); assay type: biochemical; settings: purified catalytic domain of HMGCoAR; H3 10-1000 μM; 37 °C; absorbance 340 nm at 0 and 10 min; three independent experiments in triplicate
T1 construct: HMGCoAR (catalytic domain) (2 µL); purchased Sigma-Aldrich
T1 sequence (P04035 426-888 limits assumed): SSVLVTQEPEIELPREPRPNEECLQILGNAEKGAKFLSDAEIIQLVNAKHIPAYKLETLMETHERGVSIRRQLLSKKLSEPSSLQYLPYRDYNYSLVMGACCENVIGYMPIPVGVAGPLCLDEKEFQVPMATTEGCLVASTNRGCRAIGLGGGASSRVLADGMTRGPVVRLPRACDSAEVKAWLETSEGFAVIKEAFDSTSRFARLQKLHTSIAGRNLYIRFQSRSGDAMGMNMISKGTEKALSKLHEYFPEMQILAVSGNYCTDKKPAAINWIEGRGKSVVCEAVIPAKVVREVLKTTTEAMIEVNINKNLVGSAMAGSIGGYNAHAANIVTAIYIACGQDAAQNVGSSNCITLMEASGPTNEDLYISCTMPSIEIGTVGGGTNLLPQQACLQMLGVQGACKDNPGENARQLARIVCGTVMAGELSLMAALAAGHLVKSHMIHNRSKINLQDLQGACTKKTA

HepG2 cells = experiment: MTT assay, HepG2 cell viability; assay type: cell-based, human; settings: 48 h
Protocol: A total of 3 × 10^4 HepG2 cells/well were seeded in 96-well plates and treated with peptide H3 (0.00001, 0.0001, 0.001, 0.01, 0.1, and 1.0 mM) or vehicle (H2O) in complete growth media at 37 °C for 48 h under 5% CO2 atmosphere. MTT experiments were performed using the protocol reported in the Supplementary Materials.
HMGCoAR were provided in the HMGCoAR Assay Kit (Sigma Aldrich SRL, Milan, Italy). The experiments were carried out following the manufacturer instructions at 37 °C. […] Subsequently, the samples were mixed and the absorbance at 340 nm read by the microplate reader Synergy H1 […]
vehicle (H2O) in complete growth media for at 37 °C under 5% CO2 atmosphere for 48 h. […] After 5 min of slow shaking, the absorbance at 575 nm was read on the Synergy H1 fluorescence plate reader (Biotek, Bad Friedrichshall, Germany). […]
For the experiments, a total of 3 X 10 4 HepG2 cells/well were seeded in 96-well plates. […] The reaction was stopped with 2 M H2SO4 and then the absorbance at 450 nm was measured using the microplate reader Synergy H1 (Winooski, VT, USA). After the read, cells were stained by adding 1 X Janus Green stain, incubating for 5 min at RT. […]
Afterward 100 µL 0.5 M HCl for well were added and incubated for 10 min. After 10 min shaking, the OD at 595 nm was measured using the microplate reader Synergy H1 (Winooski, VT, USA). […]

Caco-2 cells = settings: differentiated Caco-2; cited from earlier work
Protocol: CVD is a multifactorial pathology in which oxidative and inflammatory status as well as hypercholesterolemia are among the main risk factors. […] To achieve this goal, a deeper study was carried out for characterizing the potential effect of peptide H3 o ...

pIC50 [1]: 4.23
Sequence: IGFLIIWV [H3]
reduced cell viability (HepG2 cells; 1 mM H3, mean ± S.D. of three experiments in triplicate, Figure S1): 19.63 ± 0.59%
effect on HepG2 viability (HepG2 cells; up to 100 µM, versus control cells, three experiments in triplicate): no effect on HepG2 viability was observed up to 100 µM
intestinal trans-epithelial transport (Caco-2 cells): transported intact by differentiated Caco-2
